# Experimental data reported in US12465050B2, “Compositions comprising a pyridine carboxylate herbicide and protoporphyrinogen oxidase (protox) inhibitor herbicides” (priority 2018, dated 2025).
# How the values were obtained:
# Type in all cases: in vivo
# [1] = test system: Sorghum vulgare (sorghum); assay: Greenhouse postemergence herbicidal effect on SORVU
# Text: (§1) Greenhouse Trial Methodology—Evaluation of Postemergence Herbicidal Effect
# (§2) Seeds of the desired test plant species were planted in a 90:10% v/v (volume/volume) mixture of PRO-MIX® BX (Premier Tech Horticulture, Quakertown, Pa., USA) and PROFILE® GREENS GRADE™ (Profile Products LLC, Buffalo Grove, Ill., USA) planting mixture, which typically has a pH of 5.2 to 6.2 and an organic matter content of at least 50 percent, in plastic pots with a surface area of 103.2 square centimeters (cm^2). In some aspects or embodiments, to help ensure good germination and healthy plants, a fungicide treatment and/or other chemical or physical treatment was applied. The plants were grown for 7-36 days (d) in a greenhouse with an approximate 14-hour (h) photoperiod which was maintained at about 23° C. during the day and 22° C. during the night. Nutrients and water were added on a regular basis and supplemental lighting was provided with overhead metal halide 1000-Watt lamps as necessary. The plants were employed for testing when they reached the second or third true leaf stage.
# Emulsifiable concentrates of each of each pyridine carboxylate herbicide (Compound A or Compound B) were prepared at 100 grams acid equivalent per liter (g ae/L). The emulsifiable concentrates also included a safener, cloquintocet mexyl, at 120 grams active ingredient per liter (g ai/L). […]
# (§3) The treated plants and control plants were placed in a greenhouse as described above and watered by sub-irrigation to prevent wash-off of the test compounds. After 20-22 d, the condition of the test plants as compared with that of the control plants was determined visually and scored on a scale of 0 to 100 percent where 0 corresponds to no injury and 100 corresponds to complete kill.
# [2] = test system: Salsola kali (Russian thistle); assay: Greenhouse postemergence herbicidal effect on SASKR
# Text: as §1, §2
# (§4) Emulsifiable concentrates of each of each pyridine carboxylate herbicide (Compound A or Compound B) were prepared at 100 grams acid equivalent per liter (g ae/L). The emulsifiable concentrates also included a safener, cloquintocet mexyl, at 120 grams active ingredient per liter (g ai/L). An aliquot of each emulsifiable concentrate was placed in a 25 mL glass vial and diluted with an aqueous mixture of 1.25% (v/v) ACTIROB® B esterified rapeseed oil (Bayer Crop Science, Research Triangle Park, N.C., USA) or MSO® Concentrate with LECI-TECH® methylated soybean oil (Loveland Products, Loveland, Colo., USA) to obtain concentrated stock solutions at the highest application rate for each herbicide, based upon a 12 milliliter (mL) application volume at a rate of 187 liters per hectare (L/ha). The concentrated stock solutions were further diluted with an aqueous mixture of 1.25% v/v ACTIROB® B or MSO® Concentrate with LECI-TECH® to obtain stock solutions at reduced application rates for each herbicide. Spray solutions of the herbicide combinations (Compound A or Compound B plus PROTOX inhibitor herbicide) were prepared by adding weighed amounts or aliquots of the PROTOX inhibitor herbicides to the stock solutions of Compound A or Compound B to form 12-mL spray solutions in two-way combinations.
# (§5) The spray solutions were applied to the plant material with an overhead Mandel track sprayer equipped with 8002E nozzles calibrated to deliver 187 L/ha over an application area of 0.503 square meters (m^2) at a spray height of 18 inches (43 centimeters (cm)) above the average plant canopy. Control plants were sprayed in the same manner with the solvent blank. All pyridine carboxylate herbicide (component a) application rates are given as “g ae/ha” and all PROTOX inhibitor herbicide (component b) application rates are given as “g ai/ha.”
# as §3
# [3] = test system: Sinapis arvensis (wild mustard); assay: Greenhouse postemergence herbicidal effect on SINAR
# Text: as §1, §2, §4, §5, §3
# [4] = test system: Lamium purpureum (purple deadnettle); assay: Greenhouse postemergence herbicidal effect on LAMPU
# Text: as §1, §2
# as §4, with “combinations. […]” for “combinations.”
# as §3
# [5] = test system: Stellaria media (chickweed); assay: Greenhouse postemergence herbicidal effect on STEME
# Text: as §1, §2
# as §4, with “combinations. […]” for “combinations.”
# as §3
# [6] = test system: Matricaria inodora (scentless chamomile); assay: Greenhouse postemergence herbicidal effect on MATIN
# Text: as §1, §2
# as §4, with “combinations. […]” for “combinations.”
# as §3
# [7] = test system: Hordeum vulgare (winter barley); assay: Greenhouse postemergence phytotoxicity on crop HORVW
# Text: as §1, §2
# as §4, with “combinations. […]” for “combinations.”
# as §3
# [8] = Compound A 7.5, Oxyfluorfen 0 g/ha
# [9] = Compound A 7.5, Pyraclonil 0 g/ha
# [10] = Compound A 7.5, Pyraflufen-ethyl 0 g/ha
# [11] = Compound A 10, Oxyfluorfen 0 g/ha
# [12] = Compound A 10, Pyraclonil 0 g/ha
# [13] = Compound A 10, Pyraflufen-ethyl 0 g/ha
# [14] = Compound A 15, Oxyfluorfen 0 g/ha
smiles,measurement,setting,value
"N#CCOC(=O)c1nc(-c2ccc3cc[nH]c3c2F)c(F)c(N)c1Cl [Compound A, cyanomethyl 4-amino-3-chloro-5-fluoro-6-(7-fluoro-1H-indol-6-yl)pyridine-2-carboxylate]","% visual injury, Obs","[1]; Compound A 7.5, Saflufenacil 0 g/ha",0%
same,"% visual injury, Obs","[1]; Compound A 10, Saflufenacil 0 g/ha",0%
same,"% visual injury, Obs","[2]; Compound A 7.5, Carfentrazone-ethyl 0 g/ha",45%
same,"% visual injury, Obs",[2]; [8],50%
same,"% visual injury, Obs",[2]; [9],45%
same,"% visual injury, Obs",[2]; [10],60%
same,"% visual injury, Obs","[2]; Compound A 10, Carfentrazone-ethyl 0 g/ha",60%
same,"% visual injury, Obs",[2]; [11],60%
same,"% visual injury, Obs",[2]; [12],60%
same,"% visual injury, Obs",[2]; [13],63%
same,"% visual injury, Obs",[2]; [14],63%
same,"% visual injury, Obs",[3]; [8],88%
same,"% visual injury, Obs",[3]; [9],88%
same,"% visual injury, Obs",[3]; [10],83%
same,"% visual injury, Obs",[3]; [11],91%
same,"% visual injury, Obs",[3]; [12],92%
same,"% visual injury, Obs",[3]; [13],88%
same,"% visual injury, Obs",[3]; [14],91%
same,"% visual injury, Obs",[4]; [8],68%
same,"% visual injury, Obs",[4]; [11],73%
same,"% visual injury, Obs",[4]; [14],73%
same,"% visual injury, Obs",[5]; [8],85%
same,"% visual injury, Obs",[5]; [11],88%
same,"% visual injury, Obs",[5]; [14],89%
same,"% visual injury, Obs",[6]; [8],55%
same,"% visual injury, Obs",[6]; [11],60%
same,"% visual injury, Obs",[6]; [14],83%
same,"% visual injury, Obs",[7]; [8],0%
same,"% visual injury, Obs",[7]; [11],0%
same,"% visual injury, Obs",[7]; [14],0%
